Measurements: PMC9147645, “Food-Derived β-Carboline Alkaloids Ameliorate Lipid Droplet Accumulation in Human Hepatocytes” (Pharmaceuticals, 2022)
Like-named read-outs stand apart in the source and are kept apart here.

How the values were obtained:
HepG2 cells [1] = test: Cytotoxicity / lipocytotoxicity assay (CCK-8); type: cell-based; details: HepG2
Protocol: (§1) HepG2 cells were purchased from the American Type Culture Collection (ATCC) (Manassas, VA, USA). High-glucose DMEM containing 10% heat-inactivated FBS and 1% penicillin–streptomycin was maintained under a humidified atmosphere at 37 °C with 5% CO2, as indicated in the Supplementary Materials. HepG2 cells (1.5 × 10^4/well) in DMEM supplemented with 10% FBS were seeded into a 96-well plate. A cytotoxicity assay was performed according to the manufacturer’s protocol using CCK-8 (Dojindo Molecular Technologies), as indicated in the Supplementary Materials (Materials and Methods). […]
(§2) 2 1.2. Cytotoxicity assay […] HepG2 cells (1.5 × 10^4/well) in DMEM supplemented with 10% FBS were under reduced pressure, and H2O (25 ml) was added. Then the solution was seeded into a 96-well plate. The cytotoxicity assay was done using CCK-8 extracted with AcOEt after adjusted to 9–10 with aq. NaOH solution. The organic (Dojindo Molecular Technologies) according to the manufacturer's protocol. […]
(§3) Compounds 1 and 3. To a stirred soln. Compound 10 (218 mg, 1.00 mmol), 5- Technologies, Rockville, USA) according to the manufacturer ’sinstructions. Cell Acetoxymethylfurfural (1, 168 mg, 1.00 mmol) and Nano CuO (7.955 mg, 0.1 suspension (100 μl/well) was inoculated in a 96-well plate (Iwaki, Japan), and mmol) were added 6 ml of DMF. The mixture was stirred at 90℃ for 16 h. The pH once monolayers were observed, treatments were added (n = 3 per each of the aqueous solution was adjusted to 9–10 with aq NaOH solution after adding treatment). Cells were then pre-incubated with the treatments for 24 h before H O. After extracting the solution with AcOEt, the organic layer was washed with assay to determine cell viability.Absorbance was measured at 450 nm using a 2 plate reader (PerkinElmer-ARVO-MX-ID 10533234, Japan). […]
(§4) [5-(hydroxymethyl)-2-furanyl]-1H-pyrido[3,4-b]indole-3-carboxylic acid (2, CAS culture medium was removed from each dish, and cells were washed Registry Number 896466-77-6); flazine methyl ester acetate (3, CAS Registry and rinsed with 1× PBS. Cells were then fixed for 20 min in 10% formalin and Number 104537-95-3); flazin (4, CAS Registry Number 100041-05-2); washed twice using PBS. Then, Oil Red O dye was added to the dishes and incubated for 20 min. Finally, the dye was removed from each dish and cells 5

[2] = Cytotoxicity / lipocytotoxicity assay (CCK-8); type: cell-based; details: human, HepG2 cells
Protocol: as §1, §2, §3, §4

[3] = tested on: cultured human hepatocytes (C3A); parameters: method as in earlier work; details: ref "We have reported"; cited from earlier work
HepG2 cells [4] = test: Real-time LDAI monitoring (live imaging); type: cell-based, human; details: HepG2 in DMEM with oleic acid, within 20 h
Protocol: Real-time LDAI monitoring: Morphological changes in HepG2 cells and LDs induced by treatment with 4 were monitored using a Nikon, Hamamatsu Photonics/Ti-E, CCD Camera for 20 h. The cell viability of the control cells was examined by staining with acridine orange (AO)/ethidium bromide (EB) dyes at the end of the experiment (20 h) (Supplementary Materials, Figure S12).

[5] = tested on: nuclear factor erythroid 2-related factor 2 (Nrf2); details: hepatocytes; ref "We have reported"; cited from earlier work
[6] = HepG2, DMEM loaded with fatty acid (+OA), read-out: Lipocytotoxicity (LC50), concentration at which 50% of cells died
[7] = HepG2, DMEM without fatty acid (−OA), read-out: Cytotoxicity (CC50), concentration at which 50% of cells died

SMILES	Cytotoxicity (in words) (HepG2 cells [1])	CC50 at 24 h [2, 6] [µM]	CC50 at 24 h [2, 7] [µM]	Cytotoxicity [3]	Protection from oxidative damage by AAPH [3]	Accumulated neutral LDs in real-time imaging (HepG2 cells [4])	Nrf2 activation [5]
O=C(O)C1Cc2c([nH]c3ccccc23)C(c2ccc(CO)o2)N1 (stereo not shown) [Compound 2, 1,2,3,4-tetrahydro-1-(5-(hydroxymethyl)-2-furanyl)-9H-pyrido [3,4-b]indole-3-carboxylic acid]	no cytotoxicity	484	> 700	–	–	–	–
O=C(O)c1cc2c([nH]c3ccccc32)c(-c2ccc(CO)o2)n1 [Compound 4, flazin]	no cytotoxicity	600	> 700	without showing any significant cytotoxicity	protects	significantly reduced in number	activated
